{
  "source": "paper PMC3816671",
  "about": "“Cell Penetrating Peptoids (CPPos): Synthesis of a Small Combinatorial Library by Using IRORI MiniKans” (Pharmaceuticals, 2012)",
  "key": {"HeLa cells": {"system": "HeLa cells", "assay": "Cellular uptake and intracellular distribution of rhodamine B-labeled peptoids by live-cell confocal imaging", "type": "cell-based, human", "conditions": "1 × 10^4 HeLa wt cells, 1 µM peptoid, 24 h, 37 °C, confocal fluorescence imaging, co-staining Hoechst 33342 and Mitotracker Green", "experimental": "All procedures with mammalian cells were carried out under sterile conditions. 1 × 10^4 HeLa (human cervix carcinoma) cells were plated into each well of a 8-well µslide from IBIDI (Ibitreat, Martinsried, Germany) and cultured in 200 µL Dulbecco’s modified Eagle’s medium, high glucose, (DMEM, Invitrogen, Karlsruhe, Germany) supplemented with 10% fetal calf serum (FCS, PAA) and1 U/mL penicillin/streptomycin at 37 °C, 5% CO2.\nThe purified peptoids were dissolved in bidistilled water to yield a 2 mM stock solution and were further diluted with 10% DMEM to yield the respective incubation media. The cells were cultured as described above were incubated with the different peptoids at final concentrations of 1–10 µM. Cellular uptake of the peptoids was measured by live-cell imaging after 1 and 24 h as fixation would alter the intracellular distribution as described for other polycationic species.\nVisualization of the peptoids was achieved by confocal microscopy using a Leica TCS-SP5 II, equipped with a DMI6000 microscope. The peptoids were excited at 561 nm using a DPSS laser. […] Fluorescence emission was measured at 417–468 nm for the detection of the nuclei, at 499–552 nm for the detection of the mitochondria, and 593–696 nm for the detection of the rhodamine B labeled peptoids. […]"}, "[1]": {"system": "mitochondria of HeLa cells", "assay": "Co-localization with the mitochondrial marker Mitotracker Green (Pearson's correlation of fluorescence profiles)", "type": "cell-based, human", "conditions": "live-cell confocal fluorescence imaging, co-staining with 100 nM Mitotracker Green, 37 °C", "method": "HeLa cells were treated with 1 and 10 µM of the corresponding peptoids for 1 and 24 h. […] However, for the better visualization of the organellar accumulation the incubation period was prolonged to 24 h. Co-localization experiments were performed by co-staining of the mitochondria with the mitochondrial marker Mitotracker Green^TM (Figure 5 and Figure 6).\nBy colocalizing the peptides with the mitochondrial marker Mitotracker Green^TM Pearson’s correlation coefficients (Rr) of the corresponding fluorescence profiles could be calculated reflecting mitochondrial specificity.\nAll procedures with mammalian cells were carried out under sterile conditions. […]\nThe purified peptoids were dissolved in bidistilled water to yield a 2 mM stock solution and were further diluted with 10% DMEM to yield the respective incubation media. […] Cellular uptake of the peptoids was measured by live-cell imaging after 1 and 24 h as fixation would alter the intracellular distribution as described for other polycationic species.\nVisualization of the peptoids was achieved by confocal microscopy using a Leica TCS-SP5 II, equipped with a DMI6000 microscope. […] Fluorescence emission was measured at 417–468 nm for the detection of the nuclei, at 499–552 nm for the detection of the mitochondria, and 593–696 nm for the detection of the rhodamine B labeled peptoids. […]"}},
  "data": [
    {"substance": "RhoB-Npmb-Nlys3-NH2 [compound 11]", "values": [
      {"measurement": "Intracellular localization", "setting": "HeLa cells", "value": "mitochondrial localization"},
      {"measurement": "Pearson's correlation coefficient (Rr) of the fluorescence profiles of peptoid and Mitotracker Green, reflecting mitochondrial specificity", "setting": "[1]", "value": "+0.68"}
    ]}
  ]
}
